{"source": "ChEMBL document CHEMBL3351983", "about": "“Synthesis and biological evaluation of substituted 3-anilino-quinolin-2(1H)-ones as PDK1 inhibitors” (Bioorg Med Chem, 2014)"}
{"target": "T1, 3-phosphoinositide-dependent protein kinase 1 (Homo sapiens, UniProt O15530)", "T1 sequence (O15530 whole entry)": "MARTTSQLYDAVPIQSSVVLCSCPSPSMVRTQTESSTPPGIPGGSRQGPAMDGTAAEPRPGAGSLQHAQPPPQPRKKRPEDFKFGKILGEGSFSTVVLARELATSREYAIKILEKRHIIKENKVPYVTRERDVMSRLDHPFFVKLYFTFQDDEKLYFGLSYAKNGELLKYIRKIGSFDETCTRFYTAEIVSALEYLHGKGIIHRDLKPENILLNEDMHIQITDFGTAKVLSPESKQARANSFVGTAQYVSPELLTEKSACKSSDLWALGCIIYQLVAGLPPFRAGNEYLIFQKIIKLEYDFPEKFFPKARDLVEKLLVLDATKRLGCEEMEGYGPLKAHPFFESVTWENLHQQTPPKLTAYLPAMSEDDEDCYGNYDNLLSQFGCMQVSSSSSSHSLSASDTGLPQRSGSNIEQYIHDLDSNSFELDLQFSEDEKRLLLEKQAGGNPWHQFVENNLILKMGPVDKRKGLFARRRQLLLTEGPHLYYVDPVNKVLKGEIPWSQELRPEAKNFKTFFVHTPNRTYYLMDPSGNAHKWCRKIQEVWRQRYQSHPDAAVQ", "experiment": "Inhibition of PDK1 (unknown origin) using PDKtide substrate and [gamma-32P]ATP by scintillation counting method", "units": {"IC50": "nM"}}
{"smiles": "CN[C@@H]1CCc2ccccc21", "IC50": 200}
{"target": "T2, 3-phosphoinositide-dependent protein kinase 1 (Homo sapiens) (UniProt O15530)", "T2 sequence (whole entry)": "T1 sequence (O15530 whole entry)", "experiment": "Inhibition of PDK1 (unknown origin) at 10 uM using PDKtide substrate and [gamma-32P]ATP by scintillation counting method", "units": {"inhibition": "%"}}
{"smiles": "CCOc1cccc(Nc2cc3cc(NC(=O)N4CCCC4)ccc3[nH]c2=O)c1", "inhibition": 23}
{"smiles": "NC(=O)Nc1ccc2[nH]c(=O)c(Nc3cc(CC(=O)NCCN4CCCCC4)cc(NC(=O)N4CCCC4)c3)cc2c1", "inhibition": 40}
{"smiles": "O=C(Nc1ccc2[nH]c(=O)c(Nc3cccc(-c4nnn[nH]4)c3)cc2c1)N1CCCC1", "inhibition": 14}
{"smiles": "NC(=O)Nc1ccc2[nH]c(=O)c(Nc3cccc(NC(=O)N4CCCC4)c3)cc2c1", "inhibition": 40}
{"smiles": "N#Cc1cccc(Nc2cc3cc(NC(=O)N4CCCC4)ccc3[nH]c2=O)c1", "inhibition": 30}
{"smiles": "O=C(Cc1ccc2[nH]c(=O)c(Nc3ccccc3)cc2c1)NCCN1CCCCC1", "inhibition": 36}
{"smiles": "CC(=O)Nc1cccc(Nc2cc3cc(NC(N)=O)ccc3[nH]c2=O)c1", "inhibition": 20}
{"smiles": "COc1cccc(-c2cccc(Nc3cc4cc(NC(=O)N5CCCC5)ccc4[nH]c3=O)c2)c1", "inhibition": 29}
